What all share (assay type): cell-based
One experiment relates to HCT116 cells. As to the kind of experiment: XTT cell viability assay, HCT116 cells. The settings on record: HCT116 (mutated RAS), 48 hours, Figure 14.
The next experiment deals with DYRK2. In words: Western-blot of DYRK2 protein levels in HEK-293T cells. The settings on record: for DYRK2 levels: HEK-293T transfected with Flag-DYRK2, inhibitor 10 µM for 24 hours, Figure 13B.
In another experiment the test system is A549 cells. In words: XTT cell viability assay, A549 cells. The settings on record: A549 (mutated RAS), 48 hours, Figure 15. For orientation: Tetrazolium dyes change colour on reduction, which living cells bring about.
The subject of the next experiment is HT-29 cells. In words: XTT cell viability assay, HT-29 cells. The settings on record: HT-29 (B-RAF V600E), different doses of Dabrafenib, with or without LDN192960 10 µM, 48 hours, Figure 16.
For another experiment, the system named is pERK1/2-T202/T204. In words: Western-blot of ERK1/2 activation loop phosphorylation in HEK-293T cells. The settings on record: Dabrafenib 10 µM 24 hours, EGF 50-100 ng/ml 5 minutes, Figure 13A.

This is an account of results in EP4755378A1, “DYRK2 INHIBITORS FOR TREATING TUMOURS WITH THE HYPERACTIVE MAPK/ERK PATHWAY” (Universidad de Córdoba, priority 2023, dated 2025).

`CC(C)(C)c1nc(-c2cccc(NS(=O)(=O)c3c(F)cccc3F)c2F)c(-c2ccnc(N)n2)s1` [Dabrafenib]: the “cell viability (tumour survival)” value in the experiment with HCT116 cells (low doses of Dabrafenib) and in the experiment on A549 cells (low doses of Dabrafenib) was “increase in tumour survival compared to the control” in each case. The cell viability result in the experiment on HCT116 cells (very high doses of Dabrafenib) is on record as “slightly reducing cell viability”; in the experiment on A549 cells (very high doses of Dabrafenib) it was “slightly reducing cell viability”; in the experiment with HT-29 cells, “dose-dependent decrease in viability”. Further, the DYRK2 stabilisation result in the experiment with DYRK2 (HEK-293T transfected with Flag-DYRK2, Dabrafenib 10 µM 24 hours, Figure 13A) is on record as “DYRK2 stabilisation was observed”. Moreover, the DYRK2 levels entry in the experiment on DYRK2 is listed as “increasing DYRK2 levels”. In the experiment on pERK1/2-T202/T204, the pathway activation entry is listed as “reduction in pathway activation”.
As for `N#CC(=C(/N)Sc1ccccc1N)/C(C#N)=C(\N)Sc1ccccc1N` [U0126], in the experiment on DYRK2, the DYRK2 levels entry was “increasing DYRK2 levels”.
